From US12064513B2, “Cationic lipid exhibiting improved intracellular dynamics” (NOF CORPORATION, priority 2018, dated 2024)

Experiment: Measurement of Liposomal pKa with TNS, empty LNP (Experimental Example 11)
Type: physicochemical
Conditions: cationic lipid:DOPC:Chol:DMG-PEG2k=52.5:7.5:40:1.5
Experimental: 20 mM Citrate buffer, sodium phosphate buffer and tris HCl buffer each containing NaCl at a final concentration of 150 mM and adjusted to various pHs within the range of pH 3.0-10.0 were prepared. LNP prepared in [Experimental Example 3], 1, was diluted with PBS to a lipid concentration of 0.5 mM. TNS (manufactured by Sigma) was diluted with ultrapure water to 0.6 mM. TNS solution (2 μL), various LNP solutions (12 μL), and buffers adjusted to various pHs (186 μL) were added to a black 96 well plate. The plate was protected from light and shaken at 400 rpm for 10 min. The fluorescence intensity (excitation: 321 nm/emission: 447 nm) was measured using a plate reader (manufactured by TECAN). The relative fluorescence intensity was calculated as a percentage, with the maximum value of the fluorescence intensity in each LNP being 100% and the minimum value being 0%. Furthermore, the pH at which the relative fluorescence intensity was 50% was taken as Liposomal pKa.
For the evaluation of Liposomal pKa, empty LNP not encapsulating nucleic acid was used. The empty LNP (cationic lipid:DOPC:Chol:DMG-PEG2k=52.5:7.5:40:1.5) was produced by performing particle preparation in the method described in [Experimental Example 10] without using a nucleic acid.
Liposomal pKa was calculated by the method described in [Experimental Example 3].

Liposomal pKa: improved pKa
SMILES: CCCCCCCC/C=C\CCCCCCCC(=O)Oc1ccc(CC(=O)NCCC2CCN(CCSSCCN3CCC(CCNC(=O)Cc4ccc(OC(=O)CCCCCCC/C=C\CCCCCCCC)cc4)CC3)CC2)cc1 [O-Ph-amide-P4C2]
